Values joined by “and” are separate entries in the source; they are usually repeats but may differ in a detail not shown here. Identical values can stand only once. Like-named read-outs stand apart in the source and are kept apart here.
Columns and labels:
[1] = General toxicity statement (LD50 and toxicity relative to thiocolchicine and colchicine); conditions: in vivo; of the weight of the body of animals
animals = test: as above; conditions: in vivo
viruses = test: Antiviral activity (statement); conditions: general statement
human leucocytes [2] = conditions: for number of leucocytes with increasing amounts (in words): 72 hours; for number of leucocytes in absence or presence of substance (in words): very approximative
Method: Contrary to the previous experiment in which different volumes of a solution of a given concentration have been added, in this experiment the various concentrations were prepared through dilution of a concentrated solution in order to add a same volume of methanol to each culture.

human leucocytes [3] = conditions: 0.01 μg/ml to 10 μg/ml; up to 30 hours; no PHA
Method: The concentrations of colchicine and of the derivative were prepared through dilution of a concentrated solution in order to add a same volume of methanol to each culture.
The doses were the following:
C1 = 0.01 μg/ml of culture
C2 = 0.1 μg/ml of culture
C3 = 0.5 μg/ml of culture
C4 = 1.0 μg/ml of culture
C5 = 2.5 μg/ml of culture
C6 = 10.0 μg/ml of culture.
Samples of culture with or without addition of methanol served as references.

leucocytes from rats = conditions: individual rat, 2 mg/kg oral
Method: These rats had been kept fasting from the evening before.
Two groups of rats served as references.
The first group consisted of rats which were given no substance. The second group consisted of rats which were given a same volume (7.5 ml/kg) of propylene glycol as that received by the treated animals.
During this experimentation a counting of the leucocytes as well as a leucocytic distribution were made before administration and 6 hours after administration of the substances. Moreover as a cytoxicity index, a measurement of the viability of leucocytes obtained 6 hours after administration was carried out by means of the staining test with Trypan blue.

phagocytosis = conditions: literature, cited from earlier work
mouse = conditions: intraperitoneal, literature; cited from earlier work
man = conditions: may sometimes be of 6 mg only, literature; cited from earlier work
rat = conditions: intravenous, literature; cited from earlier work
cat = conditions: intravenous, literature; cited from earlier work
[4] = Table 9, C1 = 2.5 μg/ml, control 412,500
[5] = Table 9, C3 = 10 μg/ml, control 412,500
[6] = Table 9, C5 = 30 μg/ml, control 412,500
[7] = Table 9, C6 = 50 μg/ml, control 412,500
[8] = Table 11, Culture I, C3 = 10 μg/ml
[9] = Table 11, Culture I, C6 = 50 μg/ml
[10] = Table 11, Culture II, C1 = 2.5 μg/ml
[11] = Table 11, Culture II, C3 = 10 μg/ml
[12] = Table 11, Culture II, C5 = 30 μg/ml
[13] = Table 11, Culture II, C6 = 50 μg/ml (two values given)
[14] = experiment 1, 6 hours after administration, 2 mg/kg
[15] = experiment 1, before administration, 2 mg/kg
[16] = experiment 2, before administration, 2 mg/kg
[17] = experiment 3, before administration, 2 mg/kg

COc1cc2c(c(OC)c1OC)-c1ccc(SC)c(=O)cc1C(NC(=O)C13CC4CC(CC(C4)C1)C3)CC2 (single isomer, unassigned) [Derivative, N-desacetyl-N-adamantoyl-thiocolchicine]
LD50 [1]: ~3000 mg/kg | high toxicity relative to colchicine (animals): about 3,000 times less than that of colchicine | toxicity relative to thiocolchicine (animals): 30 times less toxic than thiocolchicine | activity against viruses (in words) (viruses): active against many viruses | number of leucocytes with increasing amounts (in words) (human leucocytes [2]; Table 9): still further lowered with the same amounts of the derivative | Count of leucocytes after 72 hours (human leucocytes [2]; [4]): 487,000 | Count of leucocytes after 72 hours (human leucocytes [2]; [5]): 360,000 | Count of leucocytes after 72 hours (human leucocytes [2]; [6]): 180,000 | Count of leucocytes after 72 hours (human leucocytes [2]; [7]): 157,000 | Count of leucocytes after 72 hours (human leucocytes [2]; [8]): 430,000 | Count of leucocytes after 72 hours (human leucocytes [2]; [9]): 515,000 | Count of leucocytes after 72 hours (human leucocytes [2]; [10]): 140,000 | Count of leucocytes after 72 hours (human leucocytes [2]; [11]): 200,000 | Count of leucocytes after 72 hours (human leucocytes [2]; [12]): 245,000 | Count of leucocytes after 72 hours (human leucocytes [2]; [13]): 290,000 and 345,000 | number of leucocytes in absence or presence of substance (in words) (human leucocytes [2]; Table 11): remain substantially the same | cytotoxicity (in words) (human leucocytes [3]): no cytotoxicity is detectable | Leucocytes / mm^3 (leucocytes from rats; [14]): 9,050 / mm^3 and 8,450 / mm^3 and 9,350 / mm^3 | Leucocytes / mm^3 (leucocytes from rats; [15]): 9,050 / mm^3 and 12,250 / mm^3 and 17,525 / mm^3 | Leucocytes / mm^3 (leucocytes from rats; experiment 2, 6 hours after administration): 5,400 / mm^3 | Leucocytes / mm^3 (leucocytes from rats; [16]): 5,900 / mm^3 and 9,350 / mm^3 | Leucocytes / mm^3 (leucocytes from rats; experiment 3, 6 hours after administration): 13,500 / mm^3 | Leucocytes / mm^3 (leucocytes from rats; [17]): 13,250 / mm^3 and 7,200 / mm^3

COc1cc2c(c(OC)c1OC)-c1ccc(OC)c(=O)cc1[C@@H](NC(C)=O)CC2 [Colchicine, colchicine, reference compound]
number of leucocytes with increasing amounts (in words) (human leucocytes [2]; Table 9): decreases with increasing amounts of colchicine | Count of leucocytes after 72 hours (human leucocytes [2]; [4]): 457,000 | Count of leucocytes after 72 hours (human leucocytes [2]; [5]): 420,000 | Count of leucocytes after 72 hours (human leucocytes [2]; [6]): 397,000 | Count of leucocytes after 72 hours (human leucocytes [2]; [7]): 270,000 | Count of leucocytes after 72 hours (human leucocytes [2]; [8]): 550,000 | Count of leucocytes after 72 hours (human leucocytes [2]; [9]): 610,000 | Count of leucocytes after 72 hours (human leucocytes [2]; [10]): 240,000 | Count of leucocytes after 72 hours (human leucocytes [2]; [11]): 295,000 | Count of leucocytes after 72 hours (human leucocytes [2]; [12]): 205,000 | Count of leucocytes after 72 hours (human leucocytes [2]; [13]): 225,000 and 330,000 | number of leucocytes in absence or presence of substance (in words) (human leucocytes [2]; Table 11): remain substantially the same | cytotoxicity (in words) (human leucocytes [3]): no cytotoxicity is detectable | Leucocytes / mm^3 (leucocytes from rats; [14]): 9,500 / mm^3 and 7,900 / mm^3 and 7,750 / mm^3 | Leucocytes / mm^3 (leucocytes from rats; [15]): 16,600 / mm^3 and 10,450 / mm^3 and 10,000 / mm^3 | Leucocytes / mm^3 (leucocytes from rats; experiment 2, 6 hours after administration, 2 mg/kg): 7,950 / mm^3 and 6,950 / mm^3 and 8,900 / mm^3 | Leucocytes / mm^3 (leucocytes from rats; [16]): 9,000 / mm^3 and 7,050 / mm^3 and 9,950 / mm^3 | Leucocytes / mm^3 (leucocytes from rats; experiment 3, 6 hours after administration, 2 mg/kg): 9,750 / mm^3 and 13,750 / mm^3 | Leucocytes / mm^3 (leucocytes from rats; [17]): 10,750 / mm^3 and 8,500 / mm^3 and 15,250 / mm^3 | % phagocytosis (phagocytosis; 0.004 μg of colchicine): 68.6 ± 3.7% | % phagocytosis (phagocytosis; 0.04 μg of colchicine): 54.2 ± 5.4% | % phagocytosis (phagocytosis; 0.4 μg of colchicine): 39.8 ± 1.2% | LD50 (mouse): 1 mg/kg | lethal dose (man): 6 mg | LD50 (rat): 1.7 mg/kg | LD50 (cat): 0.25 mg/kg

From US3997506A (priority 1974, dated 1976)
